Measured values from the kinase profiling compilation of Christmann-Franck et al. (2016).

Experiments:
Experiment in all cases: radiometric filter-binding kinase assay, Kinaseprofiler
[1] = tested on: DDR2 (human), Q16832 [S642A]; details: ATP 200 µM
[2] = tested on: MAPK9 (human), P45984 [S51N]; details: ATP 45 µM
[3] = tested on: EPHB2 (human), P29323 [A848S/K918E]; details: ATP 10 µM
CDK7 CCNH MNAT1 (human) = CDK7 CCNH MNAT1 (human) (UniProt P50613+P51948+P51946); details: compound 10.0 µM; ATP 90 µM
MTOR FKBP1A (human) = MTOR FKBP1A (human) (UniProt P42345+P62942); details: ATP 45 µM
CDK3 CCNE1 (human) = CDK3 CCNE1 (human) (UniProt Q00526+P24864); details: ATP 200 µM
[4] = molecular target: PRKAA2 PRKAB1 PRKAG1 (human) (UniProt P54619+P54646+Q9Y478); details: ATP 45 µM
CDK2 CCNE1 (human) = CDK2 CCNE1 (human) (UniProt P24941+P24864); details: ATP 120 µM
CDK2 CCNA2 (human) = CDK2 CCNA2 (human) (UniProt P24941+P20248); details: ATP 45 µM
Sequence of CDK2 CCNA2 (human) (P20248 whole entry, looked up, other chains not shown): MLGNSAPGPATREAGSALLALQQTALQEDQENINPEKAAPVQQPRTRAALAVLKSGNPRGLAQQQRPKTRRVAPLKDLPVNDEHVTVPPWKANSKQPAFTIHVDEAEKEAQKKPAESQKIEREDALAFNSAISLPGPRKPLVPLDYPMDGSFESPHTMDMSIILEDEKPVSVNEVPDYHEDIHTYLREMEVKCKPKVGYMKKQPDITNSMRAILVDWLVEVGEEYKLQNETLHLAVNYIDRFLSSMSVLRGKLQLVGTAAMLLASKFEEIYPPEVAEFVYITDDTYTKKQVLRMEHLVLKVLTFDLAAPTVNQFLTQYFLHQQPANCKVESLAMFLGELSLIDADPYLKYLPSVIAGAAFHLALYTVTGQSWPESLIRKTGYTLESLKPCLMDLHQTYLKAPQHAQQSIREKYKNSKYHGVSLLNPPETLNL

Sequence of DDR2 (human), Q16832 [S642A] (Q16832 whole entry, looked up, stated change not applied): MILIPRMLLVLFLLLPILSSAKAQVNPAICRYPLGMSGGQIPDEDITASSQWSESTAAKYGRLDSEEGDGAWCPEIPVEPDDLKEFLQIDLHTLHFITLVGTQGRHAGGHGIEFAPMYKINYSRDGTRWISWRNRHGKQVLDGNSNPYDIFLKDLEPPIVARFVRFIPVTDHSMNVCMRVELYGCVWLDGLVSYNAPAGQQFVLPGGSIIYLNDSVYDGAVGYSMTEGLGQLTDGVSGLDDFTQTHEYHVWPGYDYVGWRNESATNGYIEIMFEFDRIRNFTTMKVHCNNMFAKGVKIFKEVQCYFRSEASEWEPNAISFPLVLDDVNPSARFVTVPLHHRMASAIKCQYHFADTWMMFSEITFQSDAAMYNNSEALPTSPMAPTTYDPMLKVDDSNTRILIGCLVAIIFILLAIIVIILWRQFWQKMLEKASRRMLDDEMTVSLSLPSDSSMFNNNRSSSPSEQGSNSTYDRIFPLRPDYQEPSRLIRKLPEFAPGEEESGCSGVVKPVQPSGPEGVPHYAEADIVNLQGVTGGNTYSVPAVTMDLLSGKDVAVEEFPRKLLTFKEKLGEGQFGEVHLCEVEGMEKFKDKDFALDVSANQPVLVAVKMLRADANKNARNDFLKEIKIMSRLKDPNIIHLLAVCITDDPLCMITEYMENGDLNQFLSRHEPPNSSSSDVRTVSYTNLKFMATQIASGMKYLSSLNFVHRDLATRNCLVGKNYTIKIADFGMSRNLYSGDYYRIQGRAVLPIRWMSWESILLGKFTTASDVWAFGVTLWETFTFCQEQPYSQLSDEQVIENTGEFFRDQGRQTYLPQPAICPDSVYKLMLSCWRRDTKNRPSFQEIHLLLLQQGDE
Sequence of PRKAA2 PRKAB1 PRKAG1 (human) (P54619 whole entry, looked up): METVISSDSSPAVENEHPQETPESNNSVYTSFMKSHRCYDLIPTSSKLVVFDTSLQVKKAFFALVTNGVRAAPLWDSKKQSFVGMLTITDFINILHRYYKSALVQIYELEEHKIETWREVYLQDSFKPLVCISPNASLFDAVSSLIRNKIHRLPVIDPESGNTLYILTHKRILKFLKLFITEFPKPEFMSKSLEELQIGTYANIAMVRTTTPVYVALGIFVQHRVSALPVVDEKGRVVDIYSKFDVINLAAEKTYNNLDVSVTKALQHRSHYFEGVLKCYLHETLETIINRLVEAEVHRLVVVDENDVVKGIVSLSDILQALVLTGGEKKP
Sequence of PRKAA2 PRKAB1 PRKAG1 (human) (P54646 whole entry, looked up): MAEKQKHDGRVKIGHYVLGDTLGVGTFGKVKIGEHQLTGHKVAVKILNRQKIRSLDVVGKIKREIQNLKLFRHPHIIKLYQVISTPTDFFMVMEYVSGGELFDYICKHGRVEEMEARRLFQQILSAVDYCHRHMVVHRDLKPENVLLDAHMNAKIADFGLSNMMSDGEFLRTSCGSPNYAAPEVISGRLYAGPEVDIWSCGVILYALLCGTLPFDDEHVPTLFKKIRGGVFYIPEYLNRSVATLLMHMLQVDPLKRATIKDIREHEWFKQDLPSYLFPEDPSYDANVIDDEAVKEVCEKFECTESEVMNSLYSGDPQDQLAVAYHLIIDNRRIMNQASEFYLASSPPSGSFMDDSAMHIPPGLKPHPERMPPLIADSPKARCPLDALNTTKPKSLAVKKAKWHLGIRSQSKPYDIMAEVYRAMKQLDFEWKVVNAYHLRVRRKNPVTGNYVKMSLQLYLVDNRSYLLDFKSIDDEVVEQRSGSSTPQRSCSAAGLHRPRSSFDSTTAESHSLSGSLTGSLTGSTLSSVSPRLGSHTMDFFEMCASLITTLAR
Sequence of PRKAA2 PRKAB1 PRKAG1 (human) (Q9Y478 whole entry, looked up): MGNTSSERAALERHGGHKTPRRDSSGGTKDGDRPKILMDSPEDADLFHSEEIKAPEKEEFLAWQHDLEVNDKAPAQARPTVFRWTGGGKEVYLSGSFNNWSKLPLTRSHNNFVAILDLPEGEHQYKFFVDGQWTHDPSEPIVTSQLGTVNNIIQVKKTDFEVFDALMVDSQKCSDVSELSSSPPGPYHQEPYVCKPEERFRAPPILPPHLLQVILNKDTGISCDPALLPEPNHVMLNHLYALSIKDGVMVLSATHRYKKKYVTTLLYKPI
Sequence of CDK2 CCNE1 (human) (P24864 whole entry, looked up, other chains not shown): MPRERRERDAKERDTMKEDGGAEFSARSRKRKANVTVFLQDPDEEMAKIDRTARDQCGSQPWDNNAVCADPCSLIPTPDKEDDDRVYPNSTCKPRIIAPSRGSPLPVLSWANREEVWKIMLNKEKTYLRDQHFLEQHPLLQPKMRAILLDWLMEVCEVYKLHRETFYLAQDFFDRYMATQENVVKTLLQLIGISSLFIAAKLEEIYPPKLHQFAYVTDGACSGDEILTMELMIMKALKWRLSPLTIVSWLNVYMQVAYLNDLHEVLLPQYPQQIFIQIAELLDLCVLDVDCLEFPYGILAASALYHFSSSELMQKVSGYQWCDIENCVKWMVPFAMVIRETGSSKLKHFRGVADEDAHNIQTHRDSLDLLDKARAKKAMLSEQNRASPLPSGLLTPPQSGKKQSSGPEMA
Sequence of CDK3 CCNE1 (human) (P24864 whole entry, looked up): as the sequence (P24864 whole entry, looked up, other chains not shown) above
Sequence of CDK3 CCNE1 (human) (Q00526 whole entry, looked up): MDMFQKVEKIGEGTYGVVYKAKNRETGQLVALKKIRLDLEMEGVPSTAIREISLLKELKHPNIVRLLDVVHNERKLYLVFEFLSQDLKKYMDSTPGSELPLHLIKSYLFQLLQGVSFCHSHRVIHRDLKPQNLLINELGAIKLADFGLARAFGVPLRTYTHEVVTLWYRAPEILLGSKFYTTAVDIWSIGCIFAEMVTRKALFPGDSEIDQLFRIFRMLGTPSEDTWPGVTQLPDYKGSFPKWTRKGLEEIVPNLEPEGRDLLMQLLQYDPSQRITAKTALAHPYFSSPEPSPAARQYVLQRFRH
Sequence of MTOR FKBP1A (human) (P62942 whole entry, looked up, other chains not shown): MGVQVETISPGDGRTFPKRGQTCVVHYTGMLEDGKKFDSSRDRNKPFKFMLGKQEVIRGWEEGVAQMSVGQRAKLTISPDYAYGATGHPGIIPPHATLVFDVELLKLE
Sequence of CDK7 CCNH MNAT1 (human) (P50613 whole entry, looked up): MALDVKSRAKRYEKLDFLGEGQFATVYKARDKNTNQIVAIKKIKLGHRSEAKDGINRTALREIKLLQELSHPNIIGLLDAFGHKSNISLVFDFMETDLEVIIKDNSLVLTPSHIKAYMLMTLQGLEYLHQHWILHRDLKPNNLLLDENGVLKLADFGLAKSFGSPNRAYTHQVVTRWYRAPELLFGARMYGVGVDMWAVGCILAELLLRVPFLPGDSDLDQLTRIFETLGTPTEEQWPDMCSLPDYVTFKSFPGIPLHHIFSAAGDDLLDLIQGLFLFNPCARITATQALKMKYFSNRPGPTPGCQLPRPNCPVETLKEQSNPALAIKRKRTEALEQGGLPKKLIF
Sequence of CDK7 CCNH MNAT1 (human) (P51946 whole entry, looked up): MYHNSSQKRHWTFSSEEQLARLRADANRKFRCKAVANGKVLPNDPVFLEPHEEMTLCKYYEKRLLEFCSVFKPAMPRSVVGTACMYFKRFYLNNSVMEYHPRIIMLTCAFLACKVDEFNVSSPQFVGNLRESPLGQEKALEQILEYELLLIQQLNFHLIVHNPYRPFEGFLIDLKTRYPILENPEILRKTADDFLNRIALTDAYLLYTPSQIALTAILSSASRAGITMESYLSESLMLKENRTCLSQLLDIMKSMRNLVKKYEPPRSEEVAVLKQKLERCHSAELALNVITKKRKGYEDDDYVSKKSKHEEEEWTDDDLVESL
Sequence of CDK7 CCNH MNAT1 (human) (P51948 whole entry, looked up): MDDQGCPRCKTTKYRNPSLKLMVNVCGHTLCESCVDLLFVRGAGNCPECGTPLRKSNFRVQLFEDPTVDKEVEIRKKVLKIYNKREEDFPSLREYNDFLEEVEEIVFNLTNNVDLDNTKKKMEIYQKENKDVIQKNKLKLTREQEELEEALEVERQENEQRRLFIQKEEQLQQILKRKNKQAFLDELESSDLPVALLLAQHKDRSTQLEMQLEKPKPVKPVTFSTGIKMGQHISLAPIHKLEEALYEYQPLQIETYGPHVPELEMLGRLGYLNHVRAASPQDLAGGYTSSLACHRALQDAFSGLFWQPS

residual activity ([1]; compound 10.0 µM)	residual activity ([1]; compound 1.0 µM)	residual activity ([2]; compound 1.0 µM)	residual activity ([2]; compound 10.0 µM)	residual activity ([3]; compound 1.0 µM)	residual activity ([3]; compound 10.0 µM)	SMILES	also measured
35%						O=C(Nc1cccc(Nc2nccc(Nc3cccc(C(F)(F)F)c3)n2)c1)C1CC1	
87%	94%	55%	17%	91%	13%	O=C1Nc2ccccc2/C1=C1\Nc2ccccc2\C1=N/O	
						CO[C@H]1[C@@H](OC)C[C@H](C)[C@@H](OC)C2=CC(=O)C=C(NC(=O)/C(C)=C\C=C/[C@H](OC)[C@@H](OC(N)=O)/C(C)=C\[C@@H]1C)C2=O	residual activity (CDK7 CCNH MNAT1 (human)): 101%; residual activity (MTOR FKBP1A (human); compound 1.0 µM): 77%; residual activity (MTOR FKBP1A (human); compound 10.0 µM): 89%; residual activity (CDK3 CCNE1 (human); compound 1.0 µM): 100%; residual activity (CDK3 CCNE1 (human); compound 10.0 µM): 87%; residual activity ([4]; compound 1.0 µM): 92%; residual activity ([4]; compound 10.0 µM): 78%; residual activity (CDK2 CCNE1 (human); compound 1.0 µM): 104%; residual activity (CDK2 CCNE1 (human); compound 10.0 µM): 91%; residual activity (CDK2 CCNA2 (human); compound 1.0 µM): 138%; residual activity (CDK2 CCNA2 (human); compound 10.0 µM): 83%
92%	93%	26%	-6%	101%	95%	O=C1c2ccccc2-c2n[nH]c3cccc1c23	

SMILES	residual activity ([1]; compound 10.0 µM)	residual activity ([1]; compound 1.0 µM)	residual activity ([2]; compound 1.0 µM)	residual activity ([2]; compound 10.0 µM)	residual activity ([3]; compound 1.0 µM)	residual activity ([3]; compound 10.0 µM)	also measured
CN[C@@H]1C[C@H]2O[C@@](C)([C@@H]1OC)n1c3ccccc3c3c4c(c5c6ccccc6n2c5c31)C(=O)NC4			52%				
COC(=O)[C@]1(O)C[C@@H]2O[C@@]1(C)n1c3ccccc3c3c4c(c5c6ccccc6n2c5c31)C(=O)NC4				-11%			
